Patent US7410945B2, “Treatment of inflammatory bowel disease” (The University of Queensland, priority 2002, dated 2008)
Entries after “also recorded” stand apart in the source; their conditions may differ.

How the values were obtained:
[1] = test system: TNBS-induced colitis in rats; assay: TNBS-induced colitis in rats, acute 24-hour study; type: in vivo, rat; settings: for colon macroscopic score: scale 0-13
Description: Two time-frames were chosen for this study, an acute time frame (24 hours), and a chronic time frame (8-days). During the course of the study both body weight and food eaten were measured daily. In the 24-hour study, all drug treatments commenced 2 days prior to instillation of TNBS (prevention). PMX53-, prednisolone- and combination-treated rats were treated once daily, and C3a antagonist-treated rats were dosed twice daily. Rats treated with the anti-TNF-α monoclonal antibody, infliximab, were dosed intravenously on one occasion, 2 days prior to TNBS instillation.
Statistical significance was assessed at P<0.05.

[2] = test system: TNBS-induced colitis in rats; assay: TNBS-induced colitis in rats, chronic 8-day study
Description: Male Wistar rats (250-300 g) were starved for 24 hours prior to being anaesthetised with ketamine (80 mg/kg i.p.) and xylazine (8 mg/kg i.p.). […] 120 mg/kg TNBS (50 mg/mL solution) along with 250 μL ethanol (100%) was then instilled to rats, which remained in the head-down position for 30 min to prevent leakage. Sham-operated rats (rats without colitis) received either saline alone or 250 μL ethanol and saline. Rats were then allowed to recover under observation.
At the completion of each experiment, rats were anaesthetized with zolazapam (50 mg/kg, IP) and xylazine (12 mg/kg, IP), and blood was collected and serum stored at −20° C. for later determination of TNF-α concentrations. Colons were dissected, and the distal 8-cm rinsed with saline and scored for clinical macroscopic damage by an independent blinded observer, using a scale of 0-13 as set out below (Bobin-Dubigeon et al, 2001). A section of the affected colon was then collected, weighed, placed in an 80° C. oven for 24 h, then reweighed and the wet-to-dry weight ratio determined as a measure of colon oedema (Rachmilewitz et al., 1989). A separate section of affected colon was also collected and homogenized with 1 mL phosphate buffered saline, sonicated for 20 seconds and centrifuged (14 000×g, 10 min). The resulting supernatant was then either stored (−20° C.) for later TNF-α determination, or used immediately in an assay for the determination of myeloperoxidase (MPO) levels. Briefly, the assay involved the addition of 20 μL substrate (o-dianisidine, 2.85 mg/mL, Sigma, U.S.A.; and 0.85% hydrogen peroxidase) to a 1:40 dilution of supernatant in phosphate buffered saline. […] Results for colon MPO content were converted to absorbance units/g tissue. Additional sections of colon were removed and stored in 10% formalin for histopathological analysis. Fixed colonic samples were embedded in paraffin wax, and sections were stained using a haematoxylin and eosin stain, photographed and examined by an independent observer in a blinded fashion. Tissue and serum TNF-α levels were determined from stored samples using an enzyme-linked immunoabsorbent assay as previously described (Arumugam et al, 2002), using undiluted samples. Results for colonic TNF-α content were then converted to pg TNF-α /g tissue.
In the 8-day study, drug-treated rats were treated both prior to colitis induction (2 days before; prevention) or following colitis induction (24 hours after; reversal).
All experimental results are expressed as means±standard error of the mean (SEM). Data analysis was performed using GraphPad Prism 3.0 software (GraphPad Software, Inc. USA). Statistical comparisons were made between drug-treated groups and colitis control animals using a one-way analysis of variance followed by a Dunnett comparison post-test analysis. Statistical significance was assessed at P<0.05.

[3] = test system: membrane attack complex; settings: Arumugam et al, 2003; cited from earlier work
[4] = test system: C5a receptor; settings: cited from earlier work
[5] = biological target: T1, C3a receptor (Homo sapiens, UniProt Q16581); settings: Finch et al, 1999; cited from earlier work
T1 sequence (Q16581 1-482): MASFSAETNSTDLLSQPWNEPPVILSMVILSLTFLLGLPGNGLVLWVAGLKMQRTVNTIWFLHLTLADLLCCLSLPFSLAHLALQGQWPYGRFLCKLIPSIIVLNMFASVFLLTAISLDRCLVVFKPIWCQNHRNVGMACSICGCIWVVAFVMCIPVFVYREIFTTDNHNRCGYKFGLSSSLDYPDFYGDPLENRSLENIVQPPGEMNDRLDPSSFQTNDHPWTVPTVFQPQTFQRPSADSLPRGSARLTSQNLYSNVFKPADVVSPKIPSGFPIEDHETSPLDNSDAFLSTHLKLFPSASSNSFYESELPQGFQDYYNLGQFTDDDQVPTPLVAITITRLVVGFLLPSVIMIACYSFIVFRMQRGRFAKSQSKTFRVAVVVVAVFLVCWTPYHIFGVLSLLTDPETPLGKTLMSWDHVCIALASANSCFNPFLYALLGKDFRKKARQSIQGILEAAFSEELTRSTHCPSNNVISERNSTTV

[6] = 8 days, post-treated 1 mg/kg/day SC, P>0.05
[7] = 8 days, pre-treated 1 mg/kg/day SC, P<0.05
[8] = 8 days, pre-treated rats, haematoxylin and eosin sections, vs drug-free rats
[9] = post-treatment (from 24 h after colitis induction; reversal)
[10] = pre-treatment (from 2 days before colitis induction)
[11] = 8 days, prior to induction (10 mg/kg/day oral and 0.3 mg/kg/day SC) or 24 h after induction (1 and 10 mg/kg/day oral), P<0.05
[12] = 8 days, prior to induction (10 mg/kg/day oral and 0.3 mg/kg/day SC) or 24 h after induction (1 and 10 mg/kg/day oral), P<0.05, listed as C5a antagonist
[13] = 24 h, drug pre-treatment, vs drug-free colitis control
[14] = 24 h, pre-treated 10 mg/kg/day oral or 0.3 mg/kg/day SC, P<0.05 vs colitis control
[15] = 8 days, pre-treated 3 mg/kg IV, P<0.05

## NC(N)=NCCC[C@H](NC(=O)COCC(c1ccccc1)c1ccccc1)C(=O)O [SB 290157, Ph2CHCH2OCH2CO-Arg-OH, reference compound]
[1]; 24 h, C3a antagonist 30 mg/kg bid IP, pre-treatment
  colon oedema (wet-to-dry weight ratio): did not have a significant effect
[1]; 24 h study
  overall disease pathology / parameters measured: effective in reducing some of the parameters measured; also recorded: able to modulate the pathology of IBD
[1]; 24 h study, 30 mg/kg i.p. twice daily, vs colitis control
  macroscopic damage: reduced the intensity of macroscopic damage

## C[C@]12C=CC(=O)C=C1CC[C@@H]1[C@@H]2[C@@H](O)C[C@@]2(C)[C@H]1CC[C@]2(O)C(=O)CO [prednisolone]
[2]; 8 days, post-treated 1 mg/kg/day SC, FIG. 8D
  colon histopathology: showed no improvement in disease pathology; also recorded: IC infiltration, E, extensive haemorrhage (H) and erosion of ML
[2]; [6]
  colonic MPO levels: did not show any improvement in colonic MPO levels
  colonic tissue TNF-α levels: no significant reduction
  food consumption: no improvement in food consumption
[2]; 8 days, post-treatment 1 mg/kg/day SC
  colon oedema (wet-to-dry weight ratio): no effect on reducing oedema
[2]; 8 days, post-treatment (24 h after induction)
  mortality: no significant effect on reducing mortality
[2]; 8 days, pre-treated 1 mg/kg/day SC
  mortality rate: 11%
[2]; [7]
  colonic MPO levels: significantly reduced colonic MPO levels
  food consumption: ate significantly more food than colitis control rats
[2]; 8 days, pre-treated 1 mg/kg/day SC, P>0.05
  colon oedema (wet-to-dry weight ratio): no significant reductions
[2]; 8 days, pre-treated or post-treated 1 mg/kg/day SC, P>0.05
  change in body weight: lost weight over the 8 days, with no significant difference compared to colitis control rats; also recorded: lost considerable body weight
[2]; [8]
  colon histopathology: showed an improvement in pathology
[2]; Day 8, post-treated 1 mg/kg/day SC, P>0.05
  colon macroscopic score: did not have any improvement in macroscopic scores
[2]; Day 8, pre-treated 1 mg/kg/day SC, P<0.05
  colon macroscopic score: significantly improved macroscopic scores
[2]; [9]
  overall disease parameters / markers: reversal of pathology was not seen; also recorded: no appreciable therapeutic effects
[2]; [10]
  overall disease parameters / markers: only prednisolone pre-treated rats displayed any improvement in the disease parameters measured; also recorded: effective at reducing the majority of parameters measured

## AcF-[OPdChaWR] [PMX53]
[3]
  effect on the formation of the membrane attack complex: no effect
[2]; 8 days, post-treated 10 mg/kg/day oral (PO), FIG. 8C
  colon histopathology: decrease in inflammatory cell accumulation and haemorrhage formation
[2]; 8 days, post-treated 10 mg/kg/day oral (PO), FIG. 8C, listed as C5a antagonist
  colon histopathology: showed an improvement in disease pathology; also recorded: IC infiltration and E, but with intact ML
[2]; 8 days, pre-treated 0.3 mg/kg SC
  deaths: no deaths
[2]; [8]
  colon histopathology: showed an improvement in pathology
[2]; [11]
  colon oedema (wet-to-dry weight ratio): significantly lower
  colonic MPO levels (neutrophil accumulation): significantly lower
[2]; [12]
  colon oedema (wet-to-dry weight ratio): significant improvement in colon wet-to-dry weight ratios; also recorded: significant reductions in wet-to-dry weight ratios
  colonic MPO levels (neutrophil accumulation): reduced to similar levels to those of the sham-operated animals
[2]; 8 days, prior to induction (10 mg/kg/day oral and 0.3 mg/kg/day SC) or 24 h after induction (1 or 10 mg/kg/day oral)
  mortality rate: ≤ 20%
[2]; 8 days, prior to induction (10 mg/kg/day oral and 0.3 mg/kg/day SC) or 24 h after induction (1 or 10 mg/kg/day oral), P<0.05
  food consumption: ate significantly more food
[2]; 8 days, prior to induction (10 mg/kg/day oral and 0.3 mg/kg/day SC) or 24 h after induction (1 or 10 mg/kg/day oral), P<0.05, listed as C5a antagonist
  food consumption: ate significantly more food than colitis control rats
[2]; 8 days, prior to induction (10 mg/kg/day oral and 0.3 mg/kg/day SC) or 24 h after induction (1 or 10 mg/kg/day oral), P<0.05 vs colitis control
  change in body weight: lost significantly less body weight
[2]; 8 days, prior to induction (10 mg/kg/day oral and 0.3 mg/kg/day SC) or 24 h after induction (1 or 10 mg/kg/day oral), P<0.05 vs colitis control, listed as C5a antagonist
  change in body weight: gained significant weight; also recorded: gained substantial weight over the 8 days, with significantly higher weights compared to colitis control rats
[2]; Day 8, prior to induction (10 mg/kg/day oral and 0.3 mg/kg/day SC) or 24 h after induction (1 or 10 mg/kg/day oral), P<0.05
  colon macroscopic score: significantly lower colon macroscopic scores
[2]; Day 8, prior to induction (10 mg/kg/day oral and 0.3 mg/kg/day SC) or 24 h after induction (1 or 10 mg/kg/day oral), P<0.05, listed as C5a antagonist
  colon macroscopic score: significantly improved macroscopic scores
[2]; after 8 days, vs drug-free colitis control, P<0.05
  colonic tissue TNF-α levels: significantly lower
[2]; over 8 days, vs drug-free colitis control (39%)
  mortality: reduced mortality
[2]; [9]
  overall disease parameters / markers: significant reduction in all disease markers
[2]; [10]
  overall disease parameters / markers: markedly reduced all the disease markers measured
[2]; rat model of chronic colitis, pre- and post-treatment
  overall disease pathology: both prevents and reverses disease pathology
[4]; Finch et al, 1999
  specificity for the C5a receptor over other related human receptors: specific for the C5a receptor over other related human receptors
[4]; human, rat and dog, Woodruff et al, 2001
  specificity for the C5a receptor across species: specific for the C5a receptor in human, rat and dog
[5]
  binding to the C3a receptor: does not bind
[1]; 24-hour study
  colon TNF-α levels: significantly reduced
[1]; 24 h, drug pre-treatment, vs colitis control
  colon oedema: significantly reduced
[1]; [13]
  colon MPO levels (neutrophil accumulation): significantly reduced
  colon macroscopic score: significantly lower colon macroscopic scores
[1]; [14]
  colon MPO levels: significant improvement
  colon oedema (wet-to-dry weight ratio): significant reduction in wet-to-dry weight ratios
[1]; 24 h after TNBS, drug pre-treatment from 2 days before TNBS, vs drug-free colitis control
  food consumption: higher body weights and food intake
[1]; 24 h after TNBS, drug pre-treatment, vs drug-free colitis control
  change in body weight: higher body weights
[1]; 24 h study
  overall disease pathology / parameters measured: significantly improves disease pathology

## infliximab
[2]; [15]
  colonic MPO levels: significantly reduced colonic MPO levels
  food consumption: ate significantly more food than drug-free rats
[2]; 8 days, pre-treated 3 mg/kg IV, P>0.05
  colon oedema (wet-to-dry weight ratio): no significant reductions
[2]; [8]
  colon histopathology: showed an improvement in pathology
[2]; 8 days, pre-treatment 3 mg/kg IV
  mortality: 20%
[2]; Day 8, pre-treated 3 mg/kg IV, P<0.05
  colon macroscopic score: significantly decreased scores
[2]; Day 8, pre-treated 3 mg/kg IV, P>0.05
  change in body weight: only a small weight gain at Day 8; however, these levels were not significantly higher than colitis control rats
[2]; [10]
  overall disease parameters / markers: did reduce the severity of lesions, it was not as effective as the C5a antagonist or prednisolone
[2]; pre-treatment (from 2 days before colitis induction), listed as Infliximab
  overall disease parameters / markers: significantly reduced disease parameters, however to a lesser extent than those observed in PMX53-treated rats
[1]; [13]
  colon macroscopic score: significant improvement seen in all treatment groups except for infliximab
